Square brackets hold non-standard residues; d marks the D form. Peptide text beside a SMILES is read from it. ξ: configuration not given here. ξHpg = NC(C(=O)O)c1ccc(O)cc1
Test system: Tyrosine--tRNA ligase (Staphylococcus aureus)
Assay: Compound was tested for inhibition of Staphylococcus aureus tyrosyl tRNA Synthetase; NI=No inhibition

IC50	Structure (SMILES)
No inhibition	N[C@@H](Cc1ccc(O)cc1)C(=O)N[C@@H](C(=O)O)c1ccccc1
No inhibition	COC(=O)C(NC(=O)[C@@H](N)Cc1ccc(O)cc1)c1ccc(O)cc1 (some centres not stated) (H-Tyr-[ξHpg]-OMe)
